Assays:
TNF-α = assay: ELISA, TNF-α production caused by fine dust; assay type: cell-based, human; details: HaCaT cells, fine dust 10 ug/ml plus peptide 20 uM, 24 hours; fine dust only = 100, no treatment = 0
Description: (§1) 2. Specifically, the cultured HaCaT cells were treated with 10 ug/ml of fine dust and 20 uM of the peptide produced in Example 1 (AhR Pep1 to AhR Pep4) respectively, and incubated for 24 hours. Then, IL-6 and TNF-α contents were measured using a […] enzyme-linked immunosorbent assay (ELISA) kit (R&D Systems Inc, Minneapolis, Minn., USA).

IL-6 = assay: ELISA, IL-6 production caused by fine dust; assay type: cell-based, human; details: HaCaT cells, fine dust 10 ug/ml plus peptide 20 uM, 24 hours; fine dust only = 100, no treatment = 0
Description: as §1

Asn-Thr-Glu (NTE; Peptide 4) [AhR Pep 4]
TNF-α production (%) (TNF-α): 82%
IL-6 production (%) (IL-6): 74%

Asp-Arg-Leu-Asn (DRLN; Peptide 1) [AhR Pep 1]
TNF-α production (%) (TNF-α): 79%
IL-6 production (%) (IL-6): 76%

Asn-Thr-Glu-Leu (NTEL; Peptide 3) [AhR Pep 3]
TNF-α production (%) (TNF-α): 89%
IL-6 production (%) (IL-6): 83%

Asp-Arg-Leu (DRL; Peptide 2) [AhR Pep 2]
TNF-α production (%) (TNF-α): 93%
IL-6 production (%) (IL-6): 87%
